Series [1] concerns influenza A strains: H1N1 strain A/PR8 and H5N1 strain A/NIBRG-14. The class given is cell-based.
In series [2] the test system is ZIKV (African strain MR766). In words: microbe, parasite or virus in culture. It is filed as cell-based, Zika virus.
Series [3] has as its system influenza B/Mem. It is filed as cell-based, influenza B/Memphis/12/97.
The test system of series [4] is influenza B/Mem. On the set-up: species or system BALB/c mice. To be noted: mouse, in vivo, iv, 2.5 mg/kg.
Series [5] deals with mouse PrP^C in L929 15.9 and CAD5 cells (Mus musculus, UniProt P04925).
Sequence of mouse PrP^C in L929 15.9 and CAD5 cells (P04925 23-230 limits assumed): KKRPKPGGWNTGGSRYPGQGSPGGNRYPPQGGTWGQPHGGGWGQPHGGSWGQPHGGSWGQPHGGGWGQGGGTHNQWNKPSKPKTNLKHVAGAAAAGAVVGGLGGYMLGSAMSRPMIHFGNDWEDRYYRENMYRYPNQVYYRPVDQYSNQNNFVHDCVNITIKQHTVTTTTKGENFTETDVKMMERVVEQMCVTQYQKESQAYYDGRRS
The subject of series [6] is influenza A strains (H1N1, H3N2, H3N3, H3N8, H5N1). The class given is cell-based.
Series [7] relates to influenza B/Mem. The class given is cell-based, influenza B/Memphis/12/97. This is another data set of the same source.
In series [8] the test system is influenza B virus strains (B/Mem, B/Wis, B/Bris). The class given is cell-based.
In series [9] the test system is PB2CB from influenza B/Mem (PB2IBV). It is filed as biochemical.
The conditions of series [10]: mouse, in vivo, iv, 10 mg/kg.
The target of series [11] is PB2 (FLAG-tagged, A/WSN-FLAG) (Influenza A virus, UniProt P03427). The class given is cell-based, influenza A/WSN/1933(H1N1).
Sequence of PB2 (FLAG-tagged, A/WSN-FLAG) (P03427 whole entry, looked up): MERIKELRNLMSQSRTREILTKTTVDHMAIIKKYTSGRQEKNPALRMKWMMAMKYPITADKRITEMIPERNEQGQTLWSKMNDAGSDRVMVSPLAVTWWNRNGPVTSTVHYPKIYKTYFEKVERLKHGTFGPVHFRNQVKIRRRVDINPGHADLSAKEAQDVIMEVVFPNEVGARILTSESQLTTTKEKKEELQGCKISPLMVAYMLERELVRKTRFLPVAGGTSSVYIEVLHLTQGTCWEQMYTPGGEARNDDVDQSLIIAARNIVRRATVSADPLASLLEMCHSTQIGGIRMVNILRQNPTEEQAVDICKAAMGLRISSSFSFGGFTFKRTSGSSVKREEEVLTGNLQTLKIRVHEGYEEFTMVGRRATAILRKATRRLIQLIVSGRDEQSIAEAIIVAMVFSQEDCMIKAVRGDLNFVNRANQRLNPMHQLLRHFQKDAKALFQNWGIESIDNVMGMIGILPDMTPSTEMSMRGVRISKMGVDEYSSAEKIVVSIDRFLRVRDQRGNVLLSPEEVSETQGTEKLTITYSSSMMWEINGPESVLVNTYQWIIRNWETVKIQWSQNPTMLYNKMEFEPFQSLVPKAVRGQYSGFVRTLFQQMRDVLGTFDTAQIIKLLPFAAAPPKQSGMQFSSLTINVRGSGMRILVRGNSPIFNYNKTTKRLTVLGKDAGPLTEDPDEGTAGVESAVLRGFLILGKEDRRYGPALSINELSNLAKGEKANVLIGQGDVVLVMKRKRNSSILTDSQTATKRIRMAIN
Series [12] deals with the molecule itself.

On to “Ac-RLIQLIVSRPPRLIQLIVSR-NH2 [compound 12]”, for which the “amount of newly produced virus (TCID50 titration), antiviral screen” value in series [1] was “showed the most pronounced effect”. Moreover, the “aspecific cytotoxic effects on MDCK cells” value with MDCK cells was “did not originate from aspecific cytotoxic effects”.
For orientation: IC50 means the midpoint of a concentration-inhibition curve. Take `C[C@@]1(O)[C@H](O)[C@@H](CO)O[C@H]1n1ccc2c(N)ncnc21` [7-DMA, 7-deaza-2′-C-methyladenosine, reference compound]: the “aspecific toxicity on the mammalian host cell” value in the series on Vero E6 cells is on record as “did not originate from aspecific toxicity”. In addition, the half-inhibitory concentration (IC50) in series [2] (Zika virus, Vero C1008, 48 h, n = 3, read-out: IC50, fraction of ZIKV-infected cells) turned out to be 4.74 ± 0.31 µM.
For the molecule Ac-WDLIQLIVSDGSDLIQLIVSD-NH2 [12B], the “protection against cytopathic effects of influenza B” value with influenza B/Mem [3] was “no protection against cytopathic effects”. Moreover, the “influenza B replication in the murine infection model (viral load in lungs)” value in the series on influenza B/Mem [4] is on record as “not affected”. Besides, the “conversion of PrP to the aggregated prion state (PrP^SC)” value in [5] is on record as “incapable to convert PrP”. Besides, the “antiviral activity on influenza A strains with APR polymorphisms” value in [6] is given as “retains activity against all these influenza A strains”. In addition, in the series with influenza B/Mem [7], the “influenza B replication in multicycle replication assay” value is given as “unaffected”. Further, in series [8], the “antiviral activity in time of addition assays and pretreatment of influenza B virion particles” value was “showed no antiviral activity”; the “effect on replication of influenza B virus strains” value is recorded as “did not interfere with the replication”. The “effect on aggregation or conformational stability of PB2IBV (Th-T, ANS)” value in [9] is “showed no effect on the aggregation or conformational stability”. For the same molecule, the “aspecific toxic effects on MDCK cells” value in the series on MDCK cells is given as “no aspecific toxic effects were observed”. In the series with HEK 293T cells, the “aspecific toxic effects on HEK 293T cells” value was “no aspecific toxic effects were observed”. Besides, the “blood analysis and histopathological evaluation of all major organs” value in series [10] is on record as “revealed no abnormalities”. In series [11], the “soluble PB2 in infected cells” value is reported as “reduction of soluble PB2”. Also, the “interference with ZIKV replication” value in [2] was “no interference with ZIKV replication is observed”.

B1: peptide 12B (peptide)
peptide: WDLIQLIVSDGSDLIQLIVSD
notes: also called amyloid peptide 12B; synthetic amyloid 12B; source: synthetic peptide
Regarding B1, the binding result in series [12] is reported as “binds”.

The record behind these values is paper PMC7275043 (Nature Communications, 2020).
